Assay results from BindingDB's records for doi:10.7270/Q22J698B (NMMLSC, 2010).

Molecular target: Cell division control protein 42 homolog (Homo sapiens, UniProt P60953)
Experiment: inhibition of fluorescent GTP binding to constitutively active Cdc42 – biochemical, multiplex bead flow cytometry, Bodipy-FL-GTP, dose response (AID 1333)

Cell division control protein 42 homolog, sequence (P60953 whole entry): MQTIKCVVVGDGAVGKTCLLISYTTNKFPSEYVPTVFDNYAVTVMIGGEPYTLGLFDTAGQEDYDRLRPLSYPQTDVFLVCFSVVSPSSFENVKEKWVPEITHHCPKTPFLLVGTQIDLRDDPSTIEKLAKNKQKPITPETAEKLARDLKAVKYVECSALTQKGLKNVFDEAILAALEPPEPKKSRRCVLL

- EC50: 92 nM
SMILES: CC1(C)Cc2c(sc(NC(=S)NC(=O)c3ccccc3)c2C(=O)O)CO1 [2-(benzoylcarbamothioylamino)-5,5-dimethyl-4,7-dihydrothieno[2,3-c]pyran-3-carboxylic acid]
